Assay results reported in patent US20050221406A1, “Method, composition and device for treating starch related diseases” (priority 2004, published 2005).
Values joined by “and” are separate entries in the source; they are usually repeats but may differ in a detail not shown here. Equal entries are not always repeated.

Tests used:
[1] = Blood glucose readings, Type I diabetic patient (Tables 1 and 2); assay type: in vivo, human; details: Table 1, one week before starting treatment, insulin 30 iu twice a day, daily readings Mon-Sun
Source text: The patient started using the first method of treatment (day and night), then changed to the 3rd method after 2 weeks of treatment, carried n with it continuously.
The patient was on 30 iu of insulin twice a day (60 iu/day) regardless of any reading of their glucose levels. […] After 4 weeks of continuous treatment with P.I.R.T (treatment method number three), their insulin does was reduced to 10 iu in the morning and 20 iu in the evening (30 iu per day).

[2] = trial (i): 300 mg sodium bicarbonate per kg of body mass, 100 min before exercise; fourteen healthy male volunteers; differs from placebo and no ingestion (P<0.05)
Procedure: A double-blind protocol was used between the (i) and (ii) trials. […] Each condition was repeated so that the volunteers underwent treadmill exercise for six times. 100 minutes before commencing treadmill exercise was allowed after ingesting substances in (i), (ii) and (iii). The volunteers exercised until fatigue. Fourteen of the volunteers completed all the tests.
A double-blind protocol was used between the (i) and (ii) trials. […] Each condition was repeated so that the volunteers underwent treadmill exercise for six times. 100 min before commencing treadmill exercise was allowed after ingesting substances in (i), (ii) and (iii). The volunteers exercised until fatigue.
Results: Fourteen of the volunteers completed all the tests. […] The data were analyzed using a two-way ANOVA with replicates and Tukey tests.

[3] = Wilkes and co-workers, cited from earlier work
[4] = four 1-minute maximal sprints at 125%, fifth interval to exhaustion; ingestion prior to exercise; cited from earlier work
[5] = running at intensity corresponding to blood lactate of 4 mM, sustained approximately 30 minutes; cited from earlier work
[6] = 100, 150, and 200 mg NaHCO3/kg body weight; 2-minute maximal exercise bout; cited from earlier work
[7] = venous blood; typical time course; cited from earlier work

Row | Compound | Pre tea BG [1] | average time, treadmill exercise until fatigue [2] | decrease in 800 m running time [3] | distance equivalent of the decrease in 800 m running time ([3]; estimated) | increase of exercise duration of the final bout [4] | effect on time to exhaustion [5] | effect on power output [6] | time of maximal rise in pH bicarbonate ion concentration after ingestion [7] | time pH bicarbonate ion concentration remains elevated after ingestion [7]
1 | insulin | 23.1 mM and 26.2 mM and 18.4 mM and 22.2 mM and 19.5 mM and 19.9 mM and 17.4 mM | – | – | – | – | – | – | – | –
2 | O=C([O-])O.[Na+] [sodium bicarbonate] | – | 4.01 s | ~3 s | approximately 19 m | 42% | no effect | no significant increase | about 1.5 hours | at least 2 hours
